Laboratory results reported in article PMC6036174 (Frontiers in Microbiology, 2018).
Values joined by “and” are separate entries in the source; they are usually repeats but may differ in a detail not shown here. Equal entries are not always repeated.

Tests used:
[1] = system: M. tuberculosis H37Rv (ATCC 27294); assay: resazurin microtiter assay, MIC against M. tuberculosis H37Rv; assay type: cell-based, Mycobacterium tuberculosis; conditions: Mycobacterium tuberculosis, 168 h, 7 days 37°C, 90% inhibition of growth, read-out: MIC90
M. tuberculosis CDC1551 = assay: broth tube MIC (visible pellet) against M. tuberculosis CDC1551; assay type: cell-based, Mycobacterium tuberculosis; conditions: Mycobacterium tuberculosis, 336 h; M. tuberculosis CDC1551; 14 days 37°C; no visible pellet; read-out: MIC100
G. mellonella larvae = assay: in vivo toxicity in Galleria mellonella larvae; conditions: for % Mortality: 72 h post-injection
Protocol: G. mellonella larvae in the 6th developmental stage were used to determine the in vivo cytotoxicity of the test complexes (Kellett et al., [2011]; Desbois and Coote, [2012]; McCann et al., [2012]). Thirty healthy larvae, each weighing between 0.2 and 0.4 g and with no cuticle discolouration, were used for each experiment. Fresh solutions of the test complexes were prepared immediately prior to testing under sterile conditions. Test compounds (0.05 g) were dissolved in DMSO (1 mL) and added to sterile water (9 mL) to give a stock solution/suspension (5,000 μg/mL). Test solutions/suspensions were prepared from the corresponding stock solution using Millipore water only to dilute to the desired concentration and each compound was screened across the concentration range of 5,000–100 mg/L. Test solutions/suspensions (20 μL) were administered to the larvae by injection directly into the haemocoel through the last pro-leg. The base of the pro-leg can be opened by applying gentle pressure to the sides of the larvae and this aperture will re-seal after removal of the syringe without leaving a scar. Larvae were placed in sterile Petri dishes and incubated at 30°C for 72 h. The survival of the larvae was monitored every 24 h. Death was assessed by the lack of movement in response to stimulus together with discolouration of the cuticle. Three controls were employed in all assays. The first consisted of untouched larvae maintained at the same temperature as the test larvae. The second was larvae with the pro-leg pierced with an inoculation needle but no solution injected. The third control was larvae that were inoculated with 20 μL of sterile water.

[2] = A549 cell cytotoxicity (MTT); conditions: human, A549 lung epithelial cells
[3] = VERO cell cytotoxicity (resazurin); conditions: African green monkey, VERO (ATCC CCL-81) normal epithelial cells
M. smegmatis cells = system: M. smegmatis cells; design: method as in Wei et al., [2003]; conditions: ref Wei et al., [2003]; cited from earlier work
MDR ATCC 49967 = system: MDR ATCC 49967; design: method as in Hoffman et al., [2013]; conditions: ref Hoffman et al., [2013]; cited from earlier work
M. tuberculosis H37Rv = conditions: M. tuberculosis H37Rv; ref Poggi et al. ([2013]); cited from earlier work
[4] = design: method as in Poggi et al. ([2013]); conditions: descriptive; ref Poggi et al. ([2013]); cited from earlier work
M. tuberculosis = system: M. tuberculosis; design: method as in Oliveira et al., [2004]; conditions: based on Na3[Fe(CN)5(INH)]·4H2O; ref Oliveira et al., [2004]; cited from earlier work
mammalian cancer cells = system: mammalian cancer cells; design: method as in Oliveira et al., [2004]; conditions: ref Oliveira et al., [2004], read-out: IC50 cytotoxicity; cited from earlier work

With `c1cnc2c(c1)ccc1cccnc12` [phen, 1,10-phenanthroline, reference compound] the MIC90 [1] was 11.2 µg/mL and 61.9 µM, the MIC (M. tuberculosis CDC1551) was 3 µg/mL and 16.6 µM and the “% Mortality” value (G. mellonella larvae; 10 μg per larvae (33.33 mg/kg)) was 0%. The “% Mortality” value (G. mellonella larvae; 20 μg per larvae (66.67 mg/kg)) was 80%, the “% Mortality” value (G. mellonella larvae; 40 μg per larvae (133.33 mg/kg)) was 80% and the “% Mortality” value (G. mellonella larvae; 100 μg per larvae (333.33 mg/kg)) was 100%. The larvae survived (G. mellonella larvae; highest administered concentration 0.1 mg (333 mg/kg) per larvae) was “all of the larvae injected at this concentration with phen died”, the “In vivo G. mellonella tolerance order in μmol” value (G. mellonella larvae; rank, 1st = best tolerated, from Table 2) was 5th and the “In vivo G. mellonella tolerance order in μmol (Normalized against no. of phens)” value (G. mellonella larvae; rank, normalized with respect to phen content) was 4th. The IC50 at 48 h [2] was 4.3 µg/mL and 23.9 µM and the IC50 at 24 h [3] was > 10 µg/mL and > 55.5 µM.
For `NNC(=O)c1ccncc1` [INH, Isoniazid, reference compound], the MIC90 [1] is given as 0.44 µM and 0.06 µg/mL, the MIC (M. tuberculosis CDC1551) is given as 0.44 µM and 0.06 µg/mL and the MIC (M. smegmatis cells) is given as > 30 mg/mL and > 218.76 mM. For the same molecule, the IC50 at 48 h [2] was 319 µg/mL and 2.33 mM and the IC50 at 24 h [3] was 333 µg/mL and 2.43 mM.
For `O=P([O-])([O-])OP(=O)([O-])[O-].[Cu+2].[Cu+2].c1cnc2c(c1)ccc1cccnc12.c1cnc2c(c1)ccc1cccnc12` [{[Cu(phen)]2(μ-P2O7)}], the MIC (MDR ATCC 49967) is given as 2.80 µM.
In the case of `O=P([O-])([O-])OP(=O)([O-])[O-].[Co+2].[Co+2].c1cnc2c(c1)ccc1cccnc12.c1cnc2c(c1)ccc1cccnc12.c1cnc2c(c1)ccc1cccnc12.c1cnc2c(c1)ccc1cccnc12` [{[Co(phen)2]2(μ-P2O7)}], the MIC (MDR ATCC 49967) is given as 2.41 µM.
In the case of `NNC(=O)c1ccncc1.O.O.O.O=S(=O)([O-])[O-].[Cu+2]` [[Cu(INH)(H2O)]SO4·2H2O], the MIC (M. tuberculosis H37Rv) is given as 2.2 µM and the solubility in water [4] is given as “only very sparingly soluble in water”.
For [Fe(CN)5(INH)]^3−, the MIC (M. tuberculosis) is given as 0.43 µM and the IC50 (mammalian cancer cells) is given as over 54 µM.
